In patent US10344060B2 (priority 2013, dated 2019):
pIC50: −log10 of the molar value. Like-named read-outs stand apart in the source and are kept apart here.

Assays:
Assay in all cases: cell-based
Type in all cases: cell-based
[1] = molecular target: T1, hNav1.4 (Homo sapiens, UniProt P35499); conditions: ratio of IonWorks Quattro IC50 values
[2] = molecular target: hNav1.7 (Homo sapiens, UniProt Q15858); conditions: for pIC50: PatchXpress, read-out: PX hNav1.7 Tonic IC50
[3] = molecular target: T1, hNav1.4; conditions: for pIC50: PatchXpress, read-out: PX hNav1.4 Tonic IC50; for Nav1.4/Nav1.7: ratio of PX tonic IC50 values

Sequence of hNav1.7 (Q15858 whole entry): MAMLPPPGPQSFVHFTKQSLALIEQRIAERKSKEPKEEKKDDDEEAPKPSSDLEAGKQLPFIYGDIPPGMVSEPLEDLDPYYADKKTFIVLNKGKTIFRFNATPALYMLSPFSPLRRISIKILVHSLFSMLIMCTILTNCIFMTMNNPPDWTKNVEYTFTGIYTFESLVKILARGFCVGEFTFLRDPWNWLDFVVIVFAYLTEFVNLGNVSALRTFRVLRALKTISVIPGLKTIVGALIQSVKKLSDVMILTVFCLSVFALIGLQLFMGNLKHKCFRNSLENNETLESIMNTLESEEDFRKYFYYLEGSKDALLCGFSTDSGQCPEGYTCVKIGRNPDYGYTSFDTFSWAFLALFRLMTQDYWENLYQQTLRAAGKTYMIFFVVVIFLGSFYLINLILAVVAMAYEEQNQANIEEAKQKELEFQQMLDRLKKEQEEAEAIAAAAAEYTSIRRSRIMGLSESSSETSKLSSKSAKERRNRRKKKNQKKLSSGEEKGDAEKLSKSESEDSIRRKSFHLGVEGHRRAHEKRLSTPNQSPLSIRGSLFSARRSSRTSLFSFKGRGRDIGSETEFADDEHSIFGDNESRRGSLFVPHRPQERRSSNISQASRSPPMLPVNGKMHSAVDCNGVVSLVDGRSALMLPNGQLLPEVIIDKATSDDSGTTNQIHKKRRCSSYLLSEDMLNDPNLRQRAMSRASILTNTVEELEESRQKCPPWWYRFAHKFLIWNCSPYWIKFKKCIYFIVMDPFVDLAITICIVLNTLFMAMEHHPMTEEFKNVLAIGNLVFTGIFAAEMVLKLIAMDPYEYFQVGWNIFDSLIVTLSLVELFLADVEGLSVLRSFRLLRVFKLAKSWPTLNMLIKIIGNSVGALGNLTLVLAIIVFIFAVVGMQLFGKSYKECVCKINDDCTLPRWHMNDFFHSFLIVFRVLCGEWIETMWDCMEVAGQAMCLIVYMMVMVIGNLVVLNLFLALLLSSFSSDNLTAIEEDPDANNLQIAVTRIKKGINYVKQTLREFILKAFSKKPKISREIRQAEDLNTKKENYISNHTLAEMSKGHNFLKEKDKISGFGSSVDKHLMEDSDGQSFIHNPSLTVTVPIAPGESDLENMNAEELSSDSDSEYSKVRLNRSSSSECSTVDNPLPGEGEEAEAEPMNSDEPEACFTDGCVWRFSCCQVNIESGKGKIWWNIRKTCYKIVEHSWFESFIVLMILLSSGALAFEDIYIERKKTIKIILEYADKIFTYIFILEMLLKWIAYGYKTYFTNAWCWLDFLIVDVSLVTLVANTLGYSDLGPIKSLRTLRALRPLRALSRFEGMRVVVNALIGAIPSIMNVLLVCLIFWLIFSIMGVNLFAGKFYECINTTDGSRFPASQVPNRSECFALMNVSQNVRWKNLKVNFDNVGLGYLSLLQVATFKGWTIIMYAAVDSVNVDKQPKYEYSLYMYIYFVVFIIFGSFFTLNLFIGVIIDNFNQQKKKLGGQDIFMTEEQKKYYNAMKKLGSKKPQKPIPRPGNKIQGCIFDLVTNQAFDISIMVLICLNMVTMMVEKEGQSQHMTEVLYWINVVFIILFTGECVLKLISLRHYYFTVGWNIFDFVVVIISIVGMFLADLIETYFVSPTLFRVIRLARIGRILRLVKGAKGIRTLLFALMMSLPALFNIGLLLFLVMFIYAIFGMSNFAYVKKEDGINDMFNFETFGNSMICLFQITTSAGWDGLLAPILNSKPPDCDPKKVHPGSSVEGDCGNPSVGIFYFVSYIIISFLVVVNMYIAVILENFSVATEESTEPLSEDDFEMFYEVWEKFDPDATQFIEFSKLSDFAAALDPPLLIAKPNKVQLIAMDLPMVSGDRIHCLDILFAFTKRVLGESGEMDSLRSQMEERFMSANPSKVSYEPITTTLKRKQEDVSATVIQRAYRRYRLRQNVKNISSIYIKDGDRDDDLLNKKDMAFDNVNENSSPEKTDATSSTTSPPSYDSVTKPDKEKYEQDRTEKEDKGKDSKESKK
T1 sequence (P35499 whole entry): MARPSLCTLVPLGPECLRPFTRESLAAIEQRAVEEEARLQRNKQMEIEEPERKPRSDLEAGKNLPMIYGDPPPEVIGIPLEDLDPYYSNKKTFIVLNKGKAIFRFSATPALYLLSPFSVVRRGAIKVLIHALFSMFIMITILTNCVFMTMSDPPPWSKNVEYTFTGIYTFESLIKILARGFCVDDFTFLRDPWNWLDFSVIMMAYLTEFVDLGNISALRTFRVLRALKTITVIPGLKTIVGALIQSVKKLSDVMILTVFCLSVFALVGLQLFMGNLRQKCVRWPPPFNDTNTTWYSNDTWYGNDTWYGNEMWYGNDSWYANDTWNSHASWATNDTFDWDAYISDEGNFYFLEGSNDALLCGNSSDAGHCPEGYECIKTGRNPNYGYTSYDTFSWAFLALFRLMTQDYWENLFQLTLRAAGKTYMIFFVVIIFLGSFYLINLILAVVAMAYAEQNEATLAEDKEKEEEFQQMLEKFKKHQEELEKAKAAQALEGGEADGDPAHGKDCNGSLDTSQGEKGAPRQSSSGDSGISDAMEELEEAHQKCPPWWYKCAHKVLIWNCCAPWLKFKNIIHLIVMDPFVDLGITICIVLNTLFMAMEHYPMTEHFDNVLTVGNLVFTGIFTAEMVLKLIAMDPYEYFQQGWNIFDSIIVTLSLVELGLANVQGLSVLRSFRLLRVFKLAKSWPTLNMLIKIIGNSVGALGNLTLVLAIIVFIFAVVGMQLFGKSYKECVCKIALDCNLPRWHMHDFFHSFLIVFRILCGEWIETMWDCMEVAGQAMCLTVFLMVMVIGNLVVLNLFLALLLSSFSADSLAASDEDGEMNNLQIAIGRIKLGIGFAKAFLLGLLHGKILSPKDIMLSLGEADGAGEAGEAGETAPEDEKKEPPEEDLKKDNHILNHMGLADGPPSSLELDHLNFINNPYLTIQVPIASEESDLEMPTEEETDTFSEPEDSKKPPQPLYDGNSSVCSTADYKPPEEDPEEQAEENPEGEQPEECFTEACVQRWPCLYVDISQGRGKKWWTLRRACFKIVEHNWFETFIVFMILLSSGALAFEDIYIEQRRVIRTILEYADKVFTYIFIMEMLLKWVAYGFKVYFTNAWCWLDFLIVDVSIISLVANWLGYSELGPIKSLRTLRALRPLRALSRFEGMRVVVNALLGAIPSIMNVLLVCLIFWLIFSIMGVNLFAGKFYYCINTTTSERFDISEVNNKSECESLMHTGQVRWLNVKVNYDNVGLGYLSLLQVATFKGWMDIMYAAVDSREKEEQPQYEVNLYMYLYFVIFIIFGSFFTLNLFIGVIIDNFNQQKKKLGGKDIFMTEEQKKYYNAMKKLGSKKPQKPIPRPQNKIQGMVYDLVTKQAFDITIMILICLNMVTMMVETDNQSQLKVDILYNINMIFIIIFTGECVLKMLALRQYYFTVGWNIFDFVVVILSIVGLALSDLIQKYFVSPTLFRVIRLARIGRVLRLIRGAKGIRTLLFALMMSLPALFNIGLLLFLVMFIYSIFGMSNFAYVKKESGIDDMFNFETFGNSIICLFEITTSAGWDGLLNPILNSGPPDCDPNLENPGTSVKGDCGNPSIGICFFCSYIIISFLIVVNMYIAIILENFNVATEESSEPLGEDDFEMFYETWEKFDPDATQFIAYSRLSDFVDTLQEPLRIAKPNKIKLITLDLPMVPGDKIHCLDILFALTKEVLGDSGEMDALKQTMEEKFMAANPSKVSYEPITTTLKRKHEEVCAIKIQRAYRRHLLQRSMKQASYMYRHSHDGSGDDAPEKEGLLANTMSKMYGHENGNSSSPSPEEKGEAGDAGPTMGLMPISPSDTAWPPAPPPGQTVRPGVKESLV

## CC[C@H](C)[C@H](NC(=O)[C@@H](NC(=O)[C@H](CCCCN)NC(=O)[C@H](CCCNC(=N)N)NC(=O)[C@@H]1CSSC[C@@H]2NC(=O)[C@H](C)NC(=O)[C@H](CCCNC(=N)N)NC(=O)[C@H](CCCCN)NC(=O)[C@H](CO)NC(=O)[C@H](CC(=O)O)NC(=O)[C@@H]3CSSC[C@H](NC(=O)[C@H](CCC(=O)O)NC(=O)[C@H](CC(C)C)NC(=O)CNC(=O)[C@H](CCC(=O)O)NC(=O)[C@H](CSSC[C@H](NC(=O)[C@@H](N)Cc4ccc(O)cc4)C(=O)N[C@@H](CCC(N)=O)C(=O)N[C@@H](CCCCN)C(=O)N[C@@H](Cc4c[nH]c5ccccc45)C(=O)N[C@@H](CCSC)C(=O)N[C@@H](Cc4c[nH]c5ccccc45)C(=O)N[C@@H]([C@@H](C)O)C(=O)N3)NC2=O)C(=O)N[C@@H](CCCCN)C(=O)N[C@@H](Cc2cn(CCCOCCOCCOCCOCCOCCOCCOCCOCCOCCOCCN)nn2)C(=O)N[C@@H](Cc2c[nH]c3ccccc23)C(=O)N1)[C@@H](C)CC)C(N)=O [compound 183]
[1]; Table 9
  Nav1.4/Nav1.7: 1

## CC[C@H](C)[C@H](NC(=O)[C@@H](NC(=O)[C@H](CCCCN)NC(=O)[C@H](CCCNC(=N)N)NC(=O)[C@@H]1CSSC[C@@H]2NC(=O)[C@H](C)NC(=O)[C@H](CCCNC(=N)N)NC(=O)[C@H](CCCCN)NC(=O)[C@H](CO)NC(=O)[C@H](CC(=O)O)NC(=O)[C@@H]3CSSC[C@H](NC(=O)[C@H](CCCNC(=N)N)NC(=O)[C@H](CC(C)C)NC(=O)CNC(=O)[C@H](Cc4cccc5ccccc45)NC(=O)[C@H](CSSC[C@H](NC(=O)[C@@H](N)Cc4ccc(O)cc4)C(=O)N[C@@H](CCC(N)=O)C(=O)N[C@@H](CCCCN)C(=O)N[C@@H](Cc4c[nH]c5ccccc45)C(=O)N[C@@H](CCSC)C(=O)N[C@@H](Cc4c[nH]c5ccccc45)C(=O)N[C@@H]([C@@H](C)O)C(=O)N3)NC2=O)C(=O)N[C@@H](CCCCN)C(=O)N[C@@H](CC(C)C)C(=O)N[C@@H](Cc2c[nH]c3ccccc23)C(=O)N1)[C@@H](C)CC)C(N)=O [compound 37]
[1]; Table 6
  Nav1.4/Nav1.7: 4

## CC[C@H](C)[C@H](NC(=O)[C@@H](NC(=O)[C@H](CCCCN)NC(=O)[C@H](CCCNC(=N)N)NC(=O)[C@@H]1CSSC[C@@H]2NC(=O)[C@H](C)NC(=O)[C@H](CCCNC(=N)N)NC(=O)[C@H](CCCCN)NC(=O)[C@H](CO)NC(=O)[C@H](CC(=O)O)NC(=O)[C@@H]3CSSC[C@H](NC(=O)[C@H](CCC(=O)O)NC(=O)[C@H](CC(C)C)NC(=O)CNC(=O)[C@H](Cc4cn(CCCOCCOCCOCCOCCOCCOCCOCCOCCOCCOCCN)nn4)NC(=O)[C@H](CSSC[C@H](NC(=O)[C@@H](N)Cc4ccc(O)cc4)C(=O)N[C@@H](CCC(N)=O)C(=O)N[C@@H](CCCCN)C(=O)N[C@@H](Cc4c[nH]c5ccccc45)C(=O)N[C@@H](CCSC)C(=O)N[C@@H](Cc4c[nH]c5ccccc45)C(=O)N[C@@H]([C@@H](C)O)C(=O)N3)NC2=O)C(=O)N[C@@H](CCCCN)C(=O)N[C@@H](CC(C)C)C(=O)N[C@@H](Cc2c[nH]c3ccccc23)C(=O)N1)[C@@H](C)CC)C(N)=O [compound 178]
[1]; Table 9
  Nav1.4/Nav1.7: 28

## CC[C@H](C)[C@H](NC(=O)[C@@H](NC(=O)[C@H](CCCCN)NC(=O)[C@H](CCCNC(=N)N)NC(=O)[C@@H]1CSSC[C@@H]2NC(=O)[C@H](C)NC(=O)[C@H](CCCNC(=N)N)NC(=O)[C@H](CCCCN)NC(=O)[C@H](CO)NC(=O)[C@H](CC(=O)O)NC(=O)[C@@H]3CSSC[C@H](NC(=O)[C@H](CCCNC(=N)N)NC(=O)[C@H](CC(C)C)NC(=O)CNC(=O)[C@H](CCC(=O)O)NC(=O)[C@H](CSSC[C@H](NC(=O)[C@@H](N)Cc4ccc(O)cc4)C(=O)N[C@@H](CCC(N)=O)C(=O)N[C@@H](CCCCN)C(=O)N[C@@H](Cc4c[nH]c5ccccc45)C(=O)N[C@@H](CCSC)C(=O)N[C@@H](Cc4c[nH]c5ccccc45)C(=O)N[C@@H]([C@@H](C)O)C(=O)N3)NC2=O)C(=O)N[C@@H](CCCCN)C(=O)N[C@@H](Cc2cccc3ccccc23)C(=O)N[C@@H](Cc2c[nH]c3ccccc23)C(=O)N1)[C@@H](C)CC)C(N)=O [compound 42]
[1]; Table 6
  Nav1.4/Nav1.7: 3

## CC[C@H](C)[C@H](NC(=O)[C@H](Cc1cn(CCCOCCOCCOCCOCCOCCOCCOCCOCCOCCOCCN)nn1)NC(=O)[C@H](CCCCN)NC(=O)[C@H](CCCNC(=N)N)NC(=O)[C@@H]1CSSC[C@@H]2NC(=O)[C@H](C)NC(=O)[C@H](CCCNC(=N)N)NC(=O)[C@H](CCCCN)NC(=O)[C@H](CO)NC(=O)[C@H](CC(=O)O)NC(=O)[C@@H]3CSSC[C@H](NC(=O)[C@H](CCC(=O)O)NC(=O)[C@H](CC(C)C)NC(=O)CNC(=O)[C@H](CCC(=O)O)NC(=O)[C@H](CSSC[C@H](NC(=O)[C@@H](N)Cc4ccc(O)cc4)C(=O)N[C@@H](CCC(N)=O)C(=O)N[C@@H](CCCCN)C(=O)N[C@@H](Cc4c[nH]c5ccccc45)C(=O)N[C@@H](CCSC)C(=O)N[C@@H](Cc4c[nH]c5ccccc45)C(=O)N[C@@H]([C@@H](C)O)C(=O)N3)NC2=O)C(=O)N[C@@H](CCCCN)C(=O)N[C@@H](CC(C)C)C(=O)N[C@@H](Cc2c[nH]c3ccccc23)C(=O)N1)C(N)=O [compound 187]
[1]; Table 9
  Nav1.4/Nav1.7: 3

## CC[C@H](C)[C@H](NC(=O)[C@@H](NC(=O)[C@H](CCCCN)NC(=O)[C@H](CCCNC(=N)N)NC(=O)[C@@H]1CSSC[C@@H]2NC(=O)[C@H](C)NC(=O)[C@H](CCCNC(=N)N)NC(=O)[C@H](CCCCN)NC(=O)[C@H](CO)NC(=O)[C@H](CC(=O)O)NC(=O)[C@@H]3CSSC[C@H](NC(=O)[C@H](CCCNC(=N)N)NC(=O)[C@H](CC(C)C)NC(=O)CNC(=O)[C@H](CCC(=O)O)NC(=O)[C@H](CSSC[C@H](NC(=O)[C@@H](N)Cc4ccc(O)cc4)C(=O)N[C@@H](CCC(N)=O)C(=O)N[C@@H](CCCCN)C(=O)N[C@@H](Cc4c[nH]c5ccccc45)C(=O)N[C@@H](CCSC)C(=O)N[C@@H](Cc4c[nH]c5ccccc45)C(=O)N[C@@H]([C@@H](C)O)C(=O)N3)NC2=O)C(=O)N[C@@H](CCC(=O)O)C(=O)N[C@@H](CC(C)C)C(=O)N[C@@H](Cc2c[nH]c3ccccc23)C(=O)N1)[C@@H](C)CC)C(N)=O [compound 64]
[2]; tonic, Table 11
  pIC50: 6.03
[2]; ratio of PX tonic IC50 values, Table 11
  Nav1.4/Nav1.7: 5
[3]; tonic, Table 11
  pIC50: 5.36

## C#CC[C@H](N)C(=O)N[C@@H](Cc1ccc(O)cc1)C(=O)N[C@H]1CSSC[C@@H]2NC(=O)[C@@H]3CSSC[C@@H](C(=O)N[C@@H](CCCNC(=N)N)C(=O)N[C@@H](CCCCN)C(=O)N[C@H](C(=O)N[C@H](C(N)=O)[C@@H](C)CC)[C@@H](C)CC)NC(=O)[C@H](Cc4c[nH]c5ccccc45)NC(=O)[C@H](CC(C)C)NC(=O)[C@H](CCCCN)NC(=O)[C@H](CSSC[C@H](NC(=O)[C@H]([C@@H](C)O)NC(=O)[C@H](Cc4c[nH]c5ccccc45)NC(=O)[C@H](CCCC)NC(=O)[C@H](Cc4c[nH]c5ccccc45)NC(=O)[C@H](CCCCN)NC(=O)[C@H](CCC(N)=O)NC1=O)C(=O)N[C@@H](CC(=O)O)C(=O)N[C@@H](CO)C(=O)N[C@@H](CCC(=O)O)C(=O)N[C@@H](CCCNC(=N)N)C(=O)N[C@@H](C)C(=O)N3)NC(=O)[C@H](CCCNC(=N)N)NC(=O)[C@H](CC(C)C)NC(=O)CNC(=O)[C@H](CCCCN)NC2=O [compound 729]
[2]; Table 12, tonic block
  pIC50: 8.73
[3]; Table 12, tonic block
  pIC50: 8.12
[3]; Table 12
  Nav1.4/Nav1.7: 4

## C#CC[C@@H]1NC(=O)[C@@H]2CSSC[C@H](NC(=O)[C@H](Cc3ccc(O)cc3)NC(=O)[C@@H](N)CC#N)C(=O)N[C@@H](CCC(N)=O)C(=O)N[C@@H](CCCCN)C(=O)N[C@@H](Cc3c[nH]c4ccccc34)C(=O)N[C@@H](CCCC)C(=O)N[C@@H](Cc3c[nH]c4ccccc34)C(=O)N[C@@H]([C@@H](C)O)C(=O)N[C@H]3CSSC[C@H](NC(=O)[C@H](CCCNC(=N)N)NC(=O)[C@H](CC(C)C)NC(=O)CNC1=O)C(=O)N[C@@H](CCCCN)C(=O)N[C@@H](CC(C)C)C(=O)N[C@@H](Cc1c[nH]c4ccccc14)C(=O)N[C@H](C(=O)N[C@@H](CCCNC(=N)N)C(=O)N[C@@H](CCCCN)C(=O)N[C@@H](CCC(=O)O)C(=O)N[C@@H](CCc1ccccc1)C(N)=O)CSSC[C@H](NC(=O)[C@H](C)NC(=O)[C@H](CCCNC(=N)N)NC(=O)[C@H](CCCCN)NC(=O)[C@H](CO)NC(=O)[C@H](CC(=O)O)NC3=O)C(=O)N2 [compound 877]
[2]; Table 12, tonic block
  pIC50: 9.80
[3]; Table 12, tonic block
  pIC50: 7.83
[3]; Table 12
  Nav1.4/Nav1.7: 93

## C#CC[C@@H]1NC(=O)[C@H](CO)NC(=O)[C@H](CC(=O)O)NC(=O)[C@@H]2CSSC[C@@H]3NC(=O)[C@H](CCCNC(=N)N)NC(=O)[C@H](CC(C)C)NC(=O)CNC(=O)[C@H](CCC(=O)O)NC(=O)[C@H](CSSC[C@H](NC(=O)[C@H](Cc4ccc(O)cc4)NC(=O)[C@@H](N)CC#N)C(=O)N[C@@H](CCC(N)=O)C(=O)N[C@@H](CCCCN)C(=O)N[C@@H](Cc4c[nH]c5ccccc45)C(=O)N[C@@H](CCCC)C(=O)N[C@@H](Cc4c[nH]c5ccccc45)C(=O)N[C@@H]([C@@H](C)O)C(=O)N2)NC(=O)[C@H](CSSC[C@@H](C(=O)N[C@@H](CCCNC(=N)N)C(=O)N[C@@H](CCCCN)C(=O)N[C@@H](CCC(=O)O)C(=O)N[C@H](C(N)=O)[C@@H](C)CC)NC(=O)[C@H](Cc2c[nH]c4ccccc24)NC(=O)[C@H](CC(C)C)NC(=O)[C@H](CCCCN)NC3=O)NC(=O)[C@H](C)NC(=O)[C@H](CCCNC(=N)N)NC1=O [compound 521]
[2]; Table 12, tonic block
  pIC50: 8.83
[3]; Table 12, tonic block
  pIC50: 7.04
[3]; Table 12
  Nav1.4/Nav1.7: 62

## C#CC[C@H](N)C(=O)N[C@@H](Cc1ccc(O)cc1)C(=O)N[C@H]1CSSC[C@@H]2NC(=O)[C@@H]3CSSC[C@@H](C(=O)N[C@@H](CCCNC(=N)N)C(=O)N[C@@H](CCCCN)C(=O)N[C@H](C(=O)N[C@H](C(N)=O)[C@@H](C)CC)[C@@H](C)CC)NC(=O)[C@H](Cc4c[nH]c5ccccc45)NC(=O)[C@H](CC(C)C)NC(=O)[C@H](CCCCN)NC(=O)[C@H](CSSC[C@H](NC(=O)[C@H]([C@@H](C)O)NC(=O)[C@H](Cc4c[nH]c5ccccc45)NC(=O)[C@H](CCCC)NC(=O)[C@H](Cc4c[nH]c5ccccc45)NC(=O)[C@H](CCCCN)NC(=O)[C@H](CCC(N)=O)NC1=O)C(=O)N[C@@H](CC(=O)O)C(=O)N[C@@H](CO)C(=O)N[C@@H](CCC(=O)O)C(=O)N[C@@H](CCCNC(=N)N)C(=O)N[C@@H](C)C(=O)N3)NC(=O)[C@H](CCCNC(=N)N)NC(=O)[C@H](CC(C)C)NC(=O)CNC(=O)[C@H](CCC(=O)O)NC2=O [compound 730]
[2]; Table 12, tonic block
  pIC50: 8.92
[3]; Table 12, tonic block
  pIC50: 7.43
[3]; Table 12
  Nav1.4/Nav1.7: 31
